Laboratory results reported in patent US6294674A, “Dibenzofuran sulfonamide matrix metalloproteinase inhibitors” (priority 1999, dated 2001).
Read-outs that look alike come from different tables or passages of the source.

What was measured:
[1] = target: T1, MMP01 (Homo sapiens, UniProt P03956); experiment: Thiopeptolide assay, MMP01; assay type: biochemical
T1 construct: purchased Washington University School of Medicine, St. Louis, Mo
T1 sequence (P03956 100-469): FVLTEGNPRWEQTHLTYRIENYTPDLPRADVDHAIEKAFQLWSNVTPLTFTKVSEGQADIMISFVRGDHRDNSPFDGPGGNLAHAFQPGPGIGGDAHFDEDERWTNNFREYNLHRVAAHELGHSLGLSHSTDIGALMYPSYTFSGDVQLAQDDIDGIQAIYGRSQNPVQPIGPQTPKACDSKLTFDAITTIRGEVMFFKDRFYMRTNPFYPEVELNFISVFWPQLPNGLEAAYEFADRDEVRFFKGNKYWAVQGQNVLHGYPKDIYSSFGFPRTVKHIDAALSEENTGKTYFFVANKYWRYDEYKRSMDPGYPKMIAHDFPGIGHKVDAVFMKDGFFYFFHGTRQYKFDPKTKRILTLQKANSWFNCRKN
Experimental: (§1) MMP01, MMP07, MMP09, and MMP13 activity was assayed in a method similar to MMP02 and MMP03 (SCD and GCD). MMP01 and MMP09 can be obtained from Washington University School of Medicine, St. Louis, Mo. MMP07 can be obtained in accordance with the known procedure set forth by Ye QZ, Johnson L. L., and Baragi V., "Gene Syntheses and Expression in E. coli for PUMP, a Human Matrix Metalloproteinase" Biochem. and Biophys. […] MMP 13 can be obtained in accordance with the known procedure set forth by Freije J. M. P., et al., "Molecular Cloning and Expression of Collegenase-3, a Novel Human Matrix Metalloproteinase Produced by Breast Carcinomas" J. Bio.
(§2) Hydrolysis of the thiopeptolide substrate Ac-Pro-Leu-Gly-thioester-Leu-Leu-Gly-OEt (Bachem) is used as the primary screen to determine IC50 values for MMP inhibitors. A 100 μL reaction contains 1 mM 5,5'-dithiobis(2-nitrobenzoic acid) (DTNB), 100 μM substrate, 0.1% Brij, enzyme, and inhibitor in the appropriate reaction buffer. Activated full-length enzymes are assayed at 5 nM, Stromelysin Catalytic Domain (SCD) at 10 nM, and Gelatinase A Catalytic Domain (GaCD) at 1 nM. Inhibitors are screened from 100 μM to 1 nM. Full-length enzymes are assayed in 50 mM HEPES, 10 mM CaCl2, pH 7.0; SCD in 50 mM MES, 10 mM CaCl2, pH 6.0; and GaCD in 50 mM MOPS, 10 mM CaCl2, 10 μM ZnCl2, pH 7.0.

[2] = target: gelatinase A catalytic domain (MMP02); experiment: Thiopeptolide assay, gelatinase A catalytic domain (GCD, MMP02); assay type: biochemical
Experimental: as §2

[3] = target: T2, stromelysin-1 catalytic domain (MMP03) (Homo sapiens, UniProt P08254); experiment: Thiopeptolide assay, stromelysin-1 catalytic domain (SCD, MMP03); assay type: biochemical
T2 construct: SCD (stromelysin-1 catalytic domain); made in house; host or cells: Escherichia coli
Experimental: as §2

[4] = target: T3, MMP07 (Homo sapiens, UniProt P09237); experiment: Thiopeptolide assay, MMP07; assay type: biochemical
T3 construct: made in house; host or cells: Escherichia coli
T3 sequence (P09237 95-267): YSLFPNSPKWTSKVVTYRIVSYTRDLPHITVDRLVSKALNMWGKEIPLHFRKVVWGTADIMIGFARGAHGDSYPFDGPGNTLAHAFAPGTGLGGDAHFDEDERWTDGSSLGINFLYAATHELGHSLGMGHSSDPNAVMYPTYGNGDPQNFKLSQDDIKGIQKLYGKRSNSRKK
Experimental: as §1, §2

[5] = test system: MMP-13CD; experiment: Thiopeptolide assay, MMP-13CD; assay type: biochemical, human; conditions: Tables 2, 3, 5, 7
Experimental: IC50 values were determined using a thiopeptolide substrate, Ac-Pro-Leu-Gly-thioester-Leu-Leu-Gly-OEt (Ye Q.-Z., Johnson L. L., Hupe D. J., and Baragi V., "Purification and Characterization of the Human Stromelysin Catalytic Domain Expressed in Escherichia coli," Biochemistry, 1992;31:11231-11235). MMP01, MMP07, MMP09, and MMP13 activity was assayed in a method similar to MMP02 and MMP03 (SCD and GCD). MMP01 and MMP09 can be obtained from Washington University School of Medicine, St. Louis, Mo. MMP07 can be obtained in accordance with the known procedure set forth by Ye QZ, Johnson L. L., and Baragi V., "Gene Syntheses and Expression in E. coli for PUMP, a Human Matrix Metalloproteinase" Biochem. and Biophys. Res. Comm., 1992; 186:143-149. MMP 13 can be obtained in accordance with the known procedure set forth by Freije J. M. P., et al., "Molecular Cloning and Expression of Collegenase-3, a Novel Human Matrix Metalloproteinase Produced by Breast Carcinomas" J. Bio. Chem., 1994;269:16766-6773.
as §2, with “7.0. The change in absorbance at 405 riM is monitored on a ThermoMax microplate reader at room temperature continuously for 20 minutes.” for “7.0.”

[6] = Tables 2, 3, 5, 7, read-out: IC50 MMP1
[7] = Tables 2, 3, 5, 7, read-out: IC50 MMP-2CD
[8] = Tables 2, 3, 5, 7, read-out: IC50 MMP 3CD
[9] = Tables 2, 3, 5, 7, read-out: IC50 MMP-7
[10] = Table 1, GCD, read-out: IC50 MMP02
[11] = Table 1, SCD, read-out: IC50 MMP03

T2 sequence (P08254 100-272 limits assumed): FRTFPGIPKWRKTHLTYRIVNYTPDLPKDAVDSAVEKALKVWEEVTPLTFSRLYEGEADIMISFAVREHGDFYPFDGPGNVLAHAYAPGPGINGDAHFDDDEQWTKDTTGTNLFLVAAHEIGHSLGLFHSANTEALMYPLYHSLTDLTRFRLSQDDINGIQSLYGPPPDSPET

Row | IC50 [1, 6] | IC50 [2, 7] | IC50 [3, 8] | IC50 [4, 9] | IC50 [5] | IC50 [2, 10] | IC50 [3, 11] | IC50 ([1]; Table 1, read-out: IC50 MMP01) | IC50 ([4]; Table 1, read-out: IC50 MMP07) | Compound
1 | > 100 µM | 1000 nM | 1700 nM | 92.9 µM | 3 µM | – | – | – | – | O=C(Cc1ccc2c(c1)OCO2)NCCCCC(NS(=O)(=O)c1ccc2oc3ccccc3c2c1)C(=O)O (stereo not drawn) [Example A19, 6-(2-Benzo[1,3]dioxol-5-yl-acetylamino)-2-(dibenzofuran-2-sulfonylamino)-hexanoic acid]
2 | > 100 µM | 2100 nM | 2700 nM | > 100 µM | 3.6 µM | – | – | – | – | O=C(CCC(NS(=O)(=O)c1ccc2oc3ccccc3c2c1)C(=O)O)NCCc1cccs1 (stereo not drawn) [Example F11, 2-(Dibenzofuran-2-sulfonylamino)-4-(2-thiophen-2-yl-ethylcarbamoyl)-butyricacid]
3 | > 100 µM | 1100 nM | 3000 nM | > 100 µM | 7.6 µM | – | – | – | – | C=CCNC(=O)NCCCCC(NS(=O)(=O)c1ccc2oc3ccccc3c2c1)C(=O)O (stereo not drawn) [Example B8, 6-(3-Allyl-ureido)-2-(dibenzofuran-2-sulfonylamino)-hexanoic acid]
4 | > 100 µM | 5200 nM | 9600 nM | > 100 µM | 11 µM | – | – | – | – | CC(C)(Oc1ccc(Cl)cc1)C(=O)NCCCCC(NS(=O)(=O)c1ccc2oc3ccccc3c2c1)C(=O)O (stereo not drawn) [Example A1, 6-[2-(4-Chloro-phenoxy)-2-methyl-propionylamino]-2-(dibenzofuran-2-sulfonylamino)-hexanoic acid]
5 | > 100 µM | 300 nM | 2400 nM | > 100 µM | 8 µM | – | – | – | – | O=C(NCCCCC(NS(=O)(=O)c1ccc2oc3ccccc3c2c1)C(=O)O)Nc1ccccc1 (stereo not drawn) [Example B10, 2-(Dibenzofuran-2-sulfonylamino)-6-(3-phenyl-ureido)-hexanoic acid]
6 | > 100 µM | 2700 nM | 4600 nM | > 100 µM | 3.7 µM | – | – | – | – | O=C(Cc1ccccc1C(F)(F)F)NCCCCC(NS(=O)(=O)c1ccc2oc3ccccc3c2c1)C(=O)O (stereo not drawn) [Example A4, 2-(Dibenzofuran-2-sulfonylamino)-6-[2-(2-trifluoromethyl-phenyl)-acetylamino]-hexanoic acid]
7 | > 100 µM | 1200 nM | 8600 nM | > 100 µM | 7.7 µM | – | – | – | – | CC(=O)Nc1ccc(S(=O)(=O)NCCCCC(NS(=O)(=O)c2ccc3oc4ccccc4c3c2)C(=O)O)cc1 (stereo not drawn) [Example D5, 6-(4-Acetylamino-benzensulfonylamino)-2-(dibenzofuran-2-sulfonylamino)-hexanoic acid]
8 | – | – | – | – | – | 100000 nM | 86000 nM | – | – | CC(C)C[C@H](CNS(=O)(=O)c1ccc2oc3ccccc3c2c1)CC(=O)O [Example 2, 2(S)-3-[(Dibenzofuran-2-sulfonylamino)-methyl]-5-methyl-hexanoic acid]
9 | > 100 µM | 1800 nM | 4500 nM | > 100 µM | 8.7 µM | – | – | – | – | O=C(CCc1ccc(Cl)cc1)NCCCCC(NS(=O)(=O)c1ccc2oc3ccccc3c2c1)C(=O)O (stereo not drawn) [Example A28, 6-[3-(4-Chloro-phenyl)-propionylamino]-2-(dibenzofuran-2-sulfonylamino)-hexanoic acid]
10 | > 100 µM | 800 nM | 1400 nM | 70.2 µM | 4 µM | – | – | – | – | O=C(NCCCCC(NS(=O)(=O)c1ccc2oc3ccccc3c2c1)C(=O)O)NCc1ccccc1 (stereo not drawn) [Example B9, 6-(3-Benzyl-ureido)-2-(dibenzofuran-2-sulfonylamino)-hexanoic acid]
11 | > 100 µM | 1400 nM | 1900 nM | 62 µM | 4.1 µM | – | – | – | – | O=C(CCC(NS(=O)(=O)c1ccc2oc3ccccc3c2c1)C(=O)O)NCCc1ccncc1 (stereo not drawn) [Example F1, 2-(Dibenzofuran-2-sulfonylamino)-4-(2-pyridin-4-yl-ethylcarbamoyl)-butyric acid]
12 | > 100 µM | 900 nM | 1800 nM | 26.4 µM | 1.2 µM | – | – | – | – | CCC(C)CNC(=O)CCC(NS(=O)(=O)c1ccc2oc3ccccc3c2c1)C(=O)O (stereo not drawn) [Example F2, 2-(Dibenzofuran-2-sulfonylamino)-4-(2-methyl-butylcarbamoyl)-butyric acid]
13 | 93.7 µM | 300 nM | 600 nM | 42.7 µM | 2.2 µM | – | – | – | – | CCCc1ccc(NC(=O)CCC(NS(=O)(=O)c2ccc3oc4ccccc4c3c2)C(=O)O)cc1 (stereo not drawn) [Example F4, 2-(Dibenzofuran-2-sulfonylamino)-4-(4-propyl-phenylcarbamoyl)-butyric acid]
14 | > 100 µM | 300 nM | 700 nM | 32.4 µM | 3.7 µM | – | – | – | – | O=C(CCC(NS(=O)(=O)c1ccc2oc3ccccc3c2c1)C(=O)O)Nc1ccc(Cl)cc1 (stereo not drawn) [Example F12, 4-(4-Chloro-phenylcarbamoyl)-2-(dibenzofuran-2-sulfonylamino)-butyric acid]
15 | > 100 µM | 900 nM | 500 nM | 35.6 µM | 1.1 µM | – | – | – | – | O=C(Cc1cccs1)NCCCCC(NS(=O)(=O)c1ccc2oc3ccccc3c2c1)C(=O)O (stereo not drawn) [Example A5, 2-(Dibenzofuran-2-sulfonylamino)-6-(2-thiophen-2-yl-acetylamino)-hexanoic acid]
16 | > 100 µM | 2900 nM | 8600 nM | > 100 µM | 11.8 µM | – | – | – | – | O=C(O)C(CCCCNS(=O)(=O)c1ccc(Br)cc1)NS(=O)(=O)c1ccc2oc3ccccc3c2c1 (stereo not drawn) [Example D3, 6-(4-Bromo-benzenesulfonylamino)-2-(dibenzofuran-2-sulfonylamino)-hexanoic acid]
17 | – | – | – | – | – | 350 nM | 180 nM | 62 µM | 3.3 µM | O=C(NCCCC[C@H](NS(=O)(=O)c1ccc2oc3ccccc3c2c1)C(=O)O)OCc1ccccc1 [Example 3, 6-Benzyloxycarbonylamino-2-(dibenzofuran-2-sulfonylamino)-hexanoic acid]
